From US8546403B2, “Compounds that modulate intracellular calcium” (Calcimedica, Inc., priority 2010, dated 2013) come the findings set out here.

A short description of one data set: Microsomal stability of compounds (liver microsomes, LC/MS/MS). It counts as in vitro ADME. The note with it: 5 μM test compound, 1 mg/mL microsomal protein, 37° C. up to 60 minutes, species and Phase I / Phase I+II not given. How it is done: Microsomal Stability of Compounds Described Herein
Liver microsomes are purchased from XenoTech, LLC (Lenexa, Kans.). Other chemicals are obtained from Sigma-Aldrich (Milwaukee, Wis.). Solvents for LC/MS/MS mobile phases and disposable labware are obtained from various vendors.
Study Protocol Phase I Only (Oxidative Metabolism in the Presence of NADPH-Regenerating System but without UDPGA):
A mixture of the test compound and liver microsomes (475 μL total) are pre-incubated for 5 minutes at 37° C. The reactions are initiated by the addition of 25 μL of the co-factor NADPH regenerating system) and are allowed to proceed at 37° C. for up to 60 minutes. The final concentrations in the assay were: 5 μM test compound, 1 mg/mL microsomal protein, 1 mM NADP+, 5 mM glucose-6-phosphate and 1 U/mL glucose-6-phosphate dehydrogenase in 50 mM potassium phosphate (pH 7.4) containing 3.3 mM MgCl2 and 100 μM EDTA. […] At pre-determined time points, the reactions are terminated by removing 50 μL-aliquots and quenching them with […] of ACN mixture containing 0.5 μM of the internal standard (carbamazepine) to achieve protein precipitation. The samples are vortexed, centrifuged at 4000 rpm (3400 rcf) for 15 minutes, and clear supernatants are analyzed by LC/MS/MS.
Phase I and II: (Oxidative Metabolism and Conjugation in the Presence of NADPH-Regenerating System and UDPGA):
The reaction mixtures are prepared similar to what is described above, except 6.6 mM UDPGA, 6.25 μg/mL alamethicin, and 1.25 mM of D-Saccharic acid 1,4-lactone (final assay concentrations) are also added together with the NADPH-regenerating system. Midazolam and 4-methylumbelliferone are used as positive controls for Phase I and Phase II, respectively.
Bioanalysis is conducted using a non-GLP LC/MS/MS method. Calibration curves are not generated and the ratios of the test compound peak area to the internal standard peak area are used to determine the relative amounts of test compound remaining at each time point.
Background: Liver microsomes are vesicles of endoplasmic reticulum, rich in cytochrome P450 enzymes.
With `O=C(Nc1ccc(-c2cc3c(cc2Cl)OC(F)(F)O3)cn1)c1c(F)cccc1F` [Compound 3], the “Microsomal t ½ (min)” value is given as “Stable (Stable is defined herein as less than 10% degradation)”.
Same read-out and setting: to `O=C(Nc1ccc(-c2cc3c(cc2Cl)OC(F)(F)O3)cn1)c1ccncc1Cl` [Compound 8] belongs “Stable (Stable is defined herein as less than 10% degradation)”.
Same read-out and setting: the same measure for `O=C(Nc1ccc(-c2cc3c(cc2Cl)OC(F)(F)O3)cn1)c1c(F)cncc1F` [Compound 9]: “Stable (Stable is defined herein as less than 10% degradation)”; for `O=C(Nc1cnc(-c2cc3c(cc2Cl)OC(F)(F)O3)cn1)c1ccccc1F` [Compound 13]: “Stable (Stable is defined herein as less than 10% degradation)”; for `Cc1nnsc1C(=O)Nc1cnc(-c2cc3c(cc2Cl)OC(F)(F)O3)cn1` [Compound 14]: “Stable (Stable is defined herein as less than 10% degradation)”.
The same measure, in the same setting: to `Cc1ccccc1C(=O)Nc1cnc(-c2cc3c(cc2Cl)OC(F)(F)O3)cn1` [Compound 17] belongs “Stable (Stable is defined herein as less than 10% degradation)”.
For `O=C(Nc1cnc(-c2cc3c(cc2Cl)OC(F)(F)O3)cn1)c1cccc(F)c1F` [Compound 18], the “Microsomal t ½ (min)” value is on record as “Stable (Stable is defined herein as less than 10% degradation)”.
Still for that read-out and setting: the same measure for `Cc1ccc(F)cc1C(=O)Nc1cnc(-c2cc3c(cc2Cl)OC(F)(F)O3)cn1` [Compound 19]: “Stable (Stable is defined herein as less than 10% degradation)”.
Regarding `Cc1cc2c(cc1-c1ccc(NC(=O)c3c(F)cccc3F)nc1)OC(F)(F)O2` [Compound 21], the “Microsomal t ½ (min)” value is recorded as “Stable (Stable is defined herein as less than 10% degradation)”.
Same read-out and setting: the same measure for `Cc1cc2c(cc1-c1cnc(NC(=O)c3c(F)cccc3F)cn1)OC(F)(F)O2` [Compound 23]: “Stable (Stable is defined herein as less than 10% degradation)”.
For `Cc1cc2c(cc1-c1cnc(NC(=O)c3ccccc3F)cn1)OC(F)(F)O2` [Compound 25], the “Microsomal t ½ (min)” value is “Stable (Stable is defined herein as less than 10% degradation)”.
Same read-out and setting: the same measure for `Cc1cc2c(cc1-c1cnc(NC(=O)c3c(F)cncc3F)cn1)OC(F)(F)O2` [Compound 28]: “Stable (Stable is defined herein as less than 10% degradation)”; for `CC(C)C(=O)Nc1ccc(-c2cc3c(cc2Cl)OC(F)(F)O3)cn1` [Compound 34]: “Stable (Stable is defined herein as less than 10% degradation)”; for `Cc1cc2c(cc1-c1ccc(NC(=O)c3c(F)cncc3F)nc1)OC(F)(F)O2` [Compound 35]: “Stable (Stable is defined herein as less than 10% degradation)”.

The data set is the same for the next values; noted with them: pH 7.4, 5 μM test compound, 1 mg/mL microsomal protein, 37° C. up to 60 minutes, species and Phase I / Phase I+II not given, read-out: Microsomal t ½.
Regarding `O=C(Nc1ccc(-c2cc3c(cc2Br)OCO3)cn1)c1c(F)cccc1F` [Compound 1], the half-life at 5 μM came to 6 min.
The same measure, in the same setting: to `O=C(Nc1ccc(-c2cc3c(cc2Br)OCO3)cc1)c1c(F)cccc1F` [Compound 2] belongs 3 min; to `O=C(Nc1ccc(-c2cc3c(cc2Cl)OC(F)(F)O3)cn1)c1ccncc1F` [Compound 4], 281 min.
Still for that read-out and setting: to `O=C(Nc1ccc(-c2cc3c(cc2Cl)OC(F)(F)O3)cn1)c1ccncc1Cl` [Compound 7] belongs 339 min; to `Cc1cc2c(cc1-c1ccc(NC(=O)c3c(F)cccc3F)nc1)OCO2` [Compound 10], 22 min.
Still for that read-out and setting: the same measure for `[2H]C1([2H])Oc2cc(C)c(-c3ccc(NC(=O)c4c(F)cccc4F)nc3)cc2O1` [Compound 15]: 36 min; for `[2H]C1([2H])Oc2cc(C)c(-c3cnc(NC(=O)c4c(F)cccc4F)cn3)cc2O1` [Compound 16]: 17 min.
In the case of `Cc1c(F)cccc1C(=O)Nc1cnc(-c2cc3c(cc2Cl)OC(F)(F)O3)cn1` [Compound 20], the half-life at 5 μM stood at 74 min.
Turning to `Cc1ccccc1C(=O)Nc1ccc(-c2cc3c(cc2C)OC(F)(F)O3)cn1` [Compound 22], the half-life at 5 μM was 109 min.
Regarding `Cc1ccccc1C(=O)Nc1cnc(-c2cc3c(cc2C)OC(F)(F)O3)cn1` [Compound 24], the half-life at 5 μM was found to be 67 min.
Same read-out and setting: the same measure for `Cc1ccc(F)cc1C(=O)Nc1cnc(-c2cc3c(cc2C)OC(F)(F)O3)cn1` [Compound 26]: 47 min.
As for `O=C(Nc1ccc(-c2cc3c(cc2Cl)OC(F)(F)O3)cn1)C1CCCC1` [Compound 27], the half-life at 5 μM was 40 min.
Take `O=C(Nc1cnc(-c2cc3c(cc2Cl)OC(F)(F)O3)cn1)C1CCCC1` [Compound 29]: the half-life at 5 μM turned out to be 38 min.
The same measure, in the same setting: to `O=C(Nc1ccc(-c2cc3c(cc2Cl)OC(F)(F)O3)cn1)C1CCC1` [Compound 30] belongs 11 min; to `O=C(CCc1ccccc1)Nc1ccc(-c2cc3c(cc2Cl)OC(F)(F)O3)cn1` [Compound 31], 26 min; to `CCCC(=O)Nc1ccc(-c2cc3c(cc2Cl)OC(F)(F)O3)cn1` [Compound 32], 19 min.
Still for that read-out and setting: the same measure for `O=C(Nc1ccc(-c2cc3c(cc2Cl)OC(F)(F)O3)cn1)C1CC1` [Compound 33]: 81 min.
